pEC50: −log10 of the molar value. Like-named read-outs stand apart in the source and are kept apart here.
Columns and labels:
[1] = molecular target: Atlantic cod Ahr1a (Gadus morhua, UniProt A0A6H1Z2L5); test: cell-based; settings: for Ahr1a REP25: EC25 of TCDD divided by concentration of PAC giving 25% of TCDD response; for Efficacy compared to TCDD with Ahr1a: Welch's t-test, Supporting Table S6; for pEC50: read-out: Ahr1a EC50; for Activation of Ahr1a (agonist or not): in vitro transactivation
[2] = molecular target: T1, Atlantic cod Ahr2a (Gadus morhua, UniProt A0A6H1Z3G8); test: cell-based; settings: for fold higher REP25 with Ahr2a compared to Ahr1a: Ahr2a versus Ahr1a; for pEC50: read-out: Ahr2a EC50; for Ahr2a REP25: EC25 of TCDD divided by concentration of PAC giving 25% of TCDD response; for Efficacy compared to TCDD via Ahr2a: Welch's t-test, Supporting Table S6; for Activation of Ahr2a (agonist or not): in vitro transactivation
T1 sequence (A0A6H1Z3G8 1-1127): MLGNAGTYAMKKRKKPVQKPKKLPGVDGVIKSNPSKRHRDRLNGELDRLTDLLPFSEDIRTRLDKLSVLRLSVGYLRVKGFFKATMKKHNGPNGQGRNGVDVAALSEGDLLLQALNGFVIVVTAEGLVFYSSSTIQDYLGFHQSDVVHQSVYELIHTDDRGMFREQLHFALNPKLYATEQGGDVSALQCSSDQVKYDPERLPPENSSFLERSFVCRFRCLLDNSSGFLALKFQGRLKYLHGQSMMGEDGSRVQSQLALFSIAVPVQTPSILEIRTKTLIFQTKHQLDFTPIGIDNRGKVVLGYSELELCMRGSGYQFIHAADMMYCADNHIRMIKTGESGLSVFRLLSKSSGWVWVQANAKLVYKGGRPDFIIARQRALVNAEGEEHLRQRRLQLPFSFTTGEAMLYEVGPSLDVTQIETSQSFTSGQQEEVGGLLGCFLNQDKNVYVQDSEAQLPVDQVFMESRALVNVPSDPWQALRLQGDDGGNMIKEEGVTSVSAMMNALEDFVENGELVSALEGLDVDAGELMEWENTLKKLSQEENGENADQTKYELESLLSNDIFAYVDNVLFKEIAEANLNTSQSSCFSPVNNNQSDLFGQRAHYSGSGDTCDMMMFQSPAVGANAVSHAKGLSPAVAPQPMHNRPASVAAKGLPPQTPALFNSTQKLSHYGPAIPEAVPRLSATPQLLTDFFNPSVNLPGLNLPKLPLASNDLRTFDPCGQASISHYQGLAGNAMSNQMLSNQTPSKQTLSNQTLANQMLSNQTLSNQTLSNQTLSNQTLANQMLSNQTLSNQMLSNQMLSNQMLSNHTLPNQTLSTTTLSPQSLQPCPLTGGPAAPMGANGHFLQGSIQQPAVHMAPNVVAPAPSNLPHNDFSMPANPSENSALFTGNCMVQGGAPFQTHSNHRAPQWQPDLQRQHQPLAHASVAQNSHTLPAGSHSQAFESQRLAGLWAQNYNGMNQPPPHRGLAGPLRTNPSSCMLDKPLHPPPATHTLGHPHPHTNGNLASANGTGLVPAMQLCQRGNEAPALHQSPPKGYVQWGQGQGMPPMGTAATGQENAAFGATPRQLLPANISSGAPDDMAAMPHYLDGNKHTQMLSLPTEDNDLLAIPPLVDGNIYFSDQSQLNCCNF

[3] = system: COS-7 cells; test: Resazurin reduction viability assay; type: cell-based, simian; settings: highest concentrations used; relative to 0.5% DMSO solvent control
Method: COS-7 simian kidney cells were seeded onto 96 well plates (10 000 cells/well) in Dulbecco’s modified Eagle’s medium (DMEM) with phenol red, supplemented with 10% fetal bovine serum (FBS), 4 mM L-glutamate, 1 mM sodium pyruvate, and 100 U/mL penicillin–streptomycin (Merck KGaA, Darmstadt, Germany), and cultivated at 37 °C with 5% CO2 for 24 h. Cells were transiently co-transfected with a eukaryotic expression plasmid (pcDNA3.1/Zeo(+), 31 ng/well), pcDNA3.1/Zeo(+)-based plasmids encoding gmAhr1a or gmAhr2a (3 ng/well), gmArnt1 (6 ng/well),[37] a luciferase reporter plasmid containing four DREs (pGudLuc6.1, 30 ng/well), and a β-galactosidase normalization plasmid (pCMV-βGAL, 30 ng/well),[45],[46] using a Mirus TransIT LT-1 transfection reagent according to the recommendations of the supplier. COS-7 cells were seeded and cultivated in DMEM (4500 mg/L glucose), supplemented with 10% FBS, 1 mM sodium pyruvate, and 4 mM L-glutamine. In the exposure medium, FBS was substituted with 10% charcoal-stripped FBS (VWR International, Radnor). To create the exposure media with the highest test concentration, compounds solved in dimethyl sulfoxide (DMSO) were diluted 1:200 in exposure medium, resulting in exposure media with 1× test compound and 0.5% DMSO. The highest concentration exposure media were serially diluted five times (1:2 for the first dilution, then 1:5) in exposure medium supplemented with 0.5% DMSO. Following transfection, cells were incubated in exposure media containing PACs or solvent control (0.5% DMSO) for 24 h. Reporter gene assays were repeated at least three times and with three technical replicates per exposure. TCDD (30 pM to 100 nM) was used as a known agonist in each experiment. Absorbance and luminescence measurements were performed on an EnSpire Multimode plate reader (PerkinElmer, Waltham, MA). While no wavelength filtering was used to measure firefly luciferase activity by luminescence, absorbance measurements to quantify β-galactosidase activity were performed at 420 nm wavelength. The viability of exposed cells was evaluated using the resazurin reduction assay as previously described.[47],[48]
Recorded luminescence was normalized for variation in transfection efficiencies using β-galactosidase enzyme activity. The difference in normalized light units measured in lysates from exposed cells to solvent-exposed cells was calculated and expressed relative to the maximum response in TCDD-exposed cells. Response curves were prepared by nonlinear regression analyses in Prism v7 and used for the determination of half-maximal effective concentration values (EC50) and maximum efficacies (Emax). EC50 values were only determined for compounds that produced a sigmoidal concentration–response curve. Relative effect potencies 25 (REP25) were determined by dividing the EC25 of TCDD by the concentration of PAC necessary to produce a response equal to 25% of the response of TCDD with gmAhrs, essentially as described by Villeneuve et al. and Lam et al.[49],[50] The D’Agostino–Pearson (Ahr activation data) or Kolmogorov–Smirnov (viability data) normality tests were used to confirm the normal distribution of the data. One-way analysis of variance (ANOVA) and Dunnett′s test were used to compare responses at different concentrations of compounds and solvent control mediated via the same Ahr, in addition to comparing metabolic activity in PAC-exposed cells and cells exposed to solvent control in the resazurin reduction assay. Welch′s t-test was used to compare the maximum Ahr-mediated response and potency (Emax and EC50) between Ahr1a or Ahr2a produced by the same test compound (Prism v7).

[4] = set-up: method as in PMID 29505926; settings: cited from earlier work; for toxic equivalent factor (TEF): toxic potential relative to the toxicity of BAP; for agonistic potential, times higher than CHR: from TEF values
[5] = Supplementary Table S5, read-out: Potency (EC50, nM) Ahr1a
[6] = percent of maximum efficacy determined for TCDD, COS-7 cells, 24 h exposure, None = no agonistic response significantly different from solvent, read-out: Ahr1a Relative Emax (%)
[7] = Supplementary Table S5, read-out: Potency (EC50, nM) Ahr2a
[8] = percent of maximum efficacy determined for TCDD, COS-7 cells, 24 h exposure, None = no agonistic response significantly different from solvent, read-out: Ahr2a Relative Emax (%)
[9] = percent of maximum efficacy determined for TCDD, COS-7 cells, 24 h exposure, None = no agonistic response significantly different from solvent
[10] = Ahr1a EC50 (nM), COS-7 cells, 24 h exposure
[11] = COS-7, read-out: Ahr1a Relative Emax (%)
[12] = Ahr2a EC50 (nM), COS-7 cells, 24 h exposure
[13] = COS-7, read-out: Ahr2a Relative Emax (%)
[14] = Potency (EC50, nM) Ahr2a, Supplementary Table S5

Chain of Atlantic cod Ahr1a (A0A6H1Z2L5 1-957): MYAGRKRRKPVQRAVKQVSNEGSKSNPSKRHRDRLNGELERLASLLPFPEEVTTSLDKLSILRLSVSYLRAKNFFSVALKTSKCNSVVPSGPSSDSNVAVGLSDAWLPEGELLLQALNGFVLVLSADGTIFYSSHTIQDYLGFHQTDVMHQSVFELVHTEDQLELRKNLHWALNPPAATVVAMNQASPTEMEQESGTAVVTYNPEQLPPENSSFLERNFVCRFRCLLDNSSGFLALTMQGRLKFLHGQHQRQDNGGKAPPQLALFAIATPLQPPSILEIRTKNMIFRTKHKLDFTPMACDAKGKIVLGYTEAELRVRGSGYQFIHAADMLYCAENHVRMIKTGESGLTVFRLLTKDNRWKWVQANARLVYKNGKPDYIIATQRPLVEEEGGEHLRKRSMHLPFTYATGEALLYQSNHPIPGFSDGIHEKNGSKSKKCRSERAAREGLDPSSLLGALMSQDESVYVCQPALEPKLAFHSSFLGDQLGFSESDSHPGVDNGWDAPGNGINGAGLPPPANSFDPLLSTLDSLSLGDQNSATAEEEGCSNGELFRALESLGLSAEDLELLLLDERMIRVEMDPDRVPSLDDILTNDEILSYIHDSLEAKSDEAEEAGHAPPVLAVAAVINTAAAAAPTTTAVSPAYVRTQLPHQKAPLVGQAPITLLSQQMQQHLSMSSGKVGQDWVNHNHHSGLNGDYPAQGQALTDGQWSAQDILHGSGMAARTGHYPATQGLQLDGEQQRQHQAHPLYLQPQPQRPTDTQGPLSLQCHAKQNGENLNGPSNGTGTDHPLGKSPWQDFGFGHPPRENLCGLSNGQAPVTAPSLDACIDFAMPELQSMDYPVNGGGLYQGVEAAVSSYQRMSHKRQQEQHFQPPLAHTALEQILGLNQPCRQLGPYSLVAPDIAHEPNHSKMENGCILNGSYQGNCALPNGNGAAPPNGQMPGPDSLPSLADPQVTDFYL
Chain of Atlantic cod Ahr1a (A0A8C5CZZ9 1-645 partner): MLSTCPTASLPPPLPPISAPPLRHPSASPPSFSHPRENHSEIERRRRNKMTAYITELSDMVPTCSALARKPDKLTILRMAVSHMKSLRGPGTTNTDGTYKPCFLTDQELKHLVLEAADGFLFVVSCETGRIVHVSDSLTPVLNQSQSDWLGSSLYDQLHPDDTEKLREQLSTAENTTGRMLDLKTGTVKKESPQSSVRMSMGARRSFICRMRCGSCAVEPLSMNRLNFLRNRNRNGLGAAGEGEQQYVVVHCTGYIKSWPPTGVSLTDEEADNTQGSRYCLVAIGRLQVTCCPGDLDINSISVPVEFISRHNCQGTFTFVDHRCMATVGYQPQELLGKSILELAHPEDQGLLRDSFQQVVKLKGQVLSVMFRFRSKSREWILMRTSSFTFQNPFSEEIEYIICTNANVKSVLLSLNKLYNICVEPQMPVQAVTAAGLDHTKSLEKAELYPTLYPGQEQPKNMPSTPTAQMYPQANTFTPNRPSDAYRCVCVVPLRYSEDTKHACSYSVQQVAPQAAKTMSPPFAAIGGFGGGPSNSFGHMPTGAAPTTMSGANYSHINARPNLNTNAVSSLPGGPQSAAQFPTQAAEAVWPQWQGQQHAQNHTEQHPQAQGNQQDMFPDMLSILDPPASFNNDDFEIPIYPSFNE

Row | SMILES | Ahr1a REP25 [1] | EC50 [1, 5] [nM] | Efficacy compared to TCDD with Ahr1a [1] | Emax [1, 6] [%] | fold higher REP25 with Ahr2a compared to Ahr1a [2] | pEC50 ([2]; COS-7 cells, 24 h exposure) | Ahr2a REP25 [2] | EC50 [2, 7] [nM] | Emax [2, 8] [%] | Metabolic activity (cell viability) of exposed COS-7 cells [3] | pEC50 ([1]; COS-7 cells, 24 h exposure) | Efficacy compared to TCDD via Ahr2a [2] | toxic equivalent factor (TEF) [4] | also measured
1 | Cc1cc2c3ccccc3ccc2c2ccccc12 [6-MC, 6-Methylchrysene] | 0.00064 | 3540 | efficacies similar to that of TCDD | 90.6 | 5- to 10 fold | 5.64 | 0.0031 | 88.8 | 89.8 | slight reduction in metabolic activities |  |  |  | 
2 | c1ccc2c(c1)ccc1c3ccccc3ccc21 [CHR, Chrysene] | 0.00052 | 481 | lower efficacies than TCDD | 40.8 |  |  |  | 3440 |  |  | 6.32 | lower efficacies in comparison to TCDD | 0.01 | Activation of Ahr1a (agonist or not) [1]: solely activate Ahr1a; Emax ([2]; COS-7, Supplementary Table S5, read-out: Efficacy (Emax, %) Ahr2a): 3.6%; Activation of Ahr2a (agonist or not) [2]: solely activate Ahr1a; Ahr2a Relative Emax (%) [2, 9]: None
3 | Oc1ccc2ccc3c4ccccc4ccc3c2c1 [3-COH, Chrysene-3-ol] | 0.00257 | 345 | lower efficacies than TCDD | 86.5 |  | 6.56 | 0.0099 | 274 | 66.1 | slight reduction in metabolic activities | 6.46 | lower efficacies in comparison to TCDD |  | 
4 | Cc1cc2ccc3ccccc3c2cc1C [2,3-DMP, 2,3-Dimethylphenanthrene] |  |  |  |  |  |  |  |  |  | slight reduction in metabolic activities |  |  |  | Activation of Ahr1a (agonist or not) [1]: did not activate; Ahr1a Relative Emax (%) [1, 9]: None; Activation of Ahr2a (agonist or not) [2]: did not activate; Ahr2a Relative Emax (%) [2, 9]: None
5 | COc1ccc2ccc3c4ccccc4ccc3c2c1 [3-MOC, 3-Methoxychrysene] | 0.0056 |  | lower efficacies than TCDD | 66.6 | 5- to 10 fold | 7.01 | 0.0588 |  | 80.8 | slight reduction in metabolic activities | 6.71 | lower efficacies in comparison to TCDD |  | 
6 | Cc1cccc2c1ccc1c3ccccc3ccc21 [1-MC, 1-Methylchrysene] | 0.0070 |  | lower efficacies than TCDD |  |  |  | 0.022 |  |  |  |  | lower efficacies in comparison to TCDD | 0.1 | EC50 [1, 10]: 175 nM; Emax [1, 11]: 45.8%; EC50 [2, 12]: 172 nM; Emax [2, 13]: 43.6%; EC50 [2, 14]: 172 nM; agonistic potential, times higher than CHR [4]: 10 times
7 | Oc1cccc2c1ccc1c3ccccc3ccc21 [1-COH, Chrysene-1-ol] | 0.0045 |  | higher efficacies (superefficacies) than TCDD |  |  |  | 0.0077 |  |  | slight reduction in metabolic activities |  | lower efficacies in comparison to TCDD |  | EC50 [1, 10]: 485 nM; Emax [1, 11]: 116%; Emax ([1]; COS-7, read-out: Efficacy (Emax, %) Ahr1a): 116%; EC50 ([1]; Potency (EC50, nM) Ahr1a, Supplementary Table S5): 485 nM; EC50 [2, 12]: 633 nM; Emax [2, 13]: 72.8%; EC50 [2, 14]: 633 nM
8 | COc1cccc2ccc3c4ccccc4ccc3c12 [4-MOC, 4-Methoxychrysene] | 0.033 |  | lower efficacies than TCDD | 83.8 | 5- to 10 fold | 7.51 | 0.206 |  | 93.7 | slight reduction in metabolic activities | 7.36 |  |  | 
9 | Cc1cc2ccccc2c2ccc3ccccc3c12 [5-MC, 5-Methylchrysene] | 0.00494 | 596 | efficacies similar to that of TCDD | 90.1 | 5- to 10 fold | 6.71 | 0.0495 | 193 | 68.4 | slight reduction in metabolic activities | 6.22 | lower efficacies in comparison to TCDD | 1.0 | agonistic potential, times higher than CHR [4]: 100 times
